Results: US9060515B2, “Heterocyclic urea compounds” (BIOTA EUROPE LTD, priority 2011, dated 2015)
In brackets after ≈: the same amount, converted by molar mass. Read-outs that look alike come from different tables or passages of the source.

Legend:
Type in all cases: cell-based
S. aureus (ATCC 29213) = assay: Antibacterial susceptibility testing (MIC, broth microdilution or agar dilution), S. aureus
How it was run: (§1)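 MICs by CLSI (M7-A7) broth microdilution or agar dilution, against reference ATCC strains as listed.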

E. faecalis (ATCC 29212) = assay: Antibacterial susceptibility testing (MIC, broth microdilution or agar dilution), E. faecalis
Description: Compounds of the invention were tested for antimicrobial activity by susceptibility testing in liquid or on solid media. MICs for compounds against each strain were determined by the broth microdilution or agar dilution method according to the guidelines of the Clinical Laboratories and Standards Institute, formerly the National Committee for Clinical Laboratory Standards (Clinical Laboratories and Standards Institute. Methods for Dilution Antimicrobial Susceptibility Tests for Bacteria That Grow Aerobically; Approved Standard—Seventh Edition. Document M7-A7. CLSI, Wayne, Pa., 2006; Clinical Laboratories and Standards Institute. The Gram positive bacterial strains tested include S. aureus (Staphylococcus aureus (Isolate ID ATCC 29213)), E. faecalis (Enterococcus faecalis (Isolate ID ATCC 29212)) and S. pyogenes (Streptococcus pyogenes (Isolate ID ATCC 51339)). The Gram negative bacterial strains tested include H. influenzae (Haemophilus influenzae (Isolate ID ATCC 49247)).

S. pyogenes (ATCC 51339) = assay: Antibacterial susceptibility testing (MIC, broth microdilution or agar dilution), S. pyogenes; conditions: Streptococcus pyogenes, ATCC51339; read-out: S. pyogenes (ATCC 51339) minimal inhibitory concentration (MIC)
How it was run: as §1

[1] = Staphylococcus aureus, ATCC29213; read-out: S. aureus (ATCC 29213) minimal inhibitory concentration (MIC)
[2] = Enterococcus faecalis, ATCC29212; read-out: E. faecalis (ATCC 29212) minimal inhibitory concentration (MIC)

| Compound | MIC (S. aureus (ATCC 29213); [1]) | MIC (E. faecalis (ATCC 29212); [2]) | further results |
| --- | --- | --- | --- |
| CCNC(=O)Nc1cc(Nc2ccccc2)c(C(=O)Nc2ccc(CN3CCS(=O)(=O)CC3)cc2)cn1 [Compound 214, N-{4-[(1,1-dioxidothiomorpholin-4-yl)methyl]phenyl}-6-[(ethylcarbamoyl)amino]-4-(phenylamino)pyridine-3-carboxamide] | 4 µg/mL (≈ 7.65 µM) | ≤ 1 µg/mL |  |
| CCNC(=O)Nc1cc(Nc2ccccc2)c(C(=O)Nc2ccn(CC(=O)O)n2)cn1 [Compound 233, {3-[({6-[(ethylcarbamoyl)amino]-4-(phenylamino)pyridin-3-yl}carbonyl)amino]-1H-pyrazol-1-yl}acetic acid] |  | 2 µg/mL (≈ 4.72 µM) |  |
| CCNC(=O)Nc1cc(Nc2ccccc2)c(C(=O)Nc2ccccc2)nn1 [Compound 212, 6-[(ethylcarbamoyl)amino]-N-phenyl-4-(phenylamino)pyridazine-3-carboxamide] |  | 8 µg/mL (≈ 21.3 µM) |  |
| CCNC(=O)Nc1cc(Nc2ccc(F)c(C)c2)c(C(=O)Nc2ccc(CCC(=O)OCC)cc2)cn1 [Compound 218, ethyl 3-{4-[({6-[(ethylcarbamoyl)amino]-4-[(4-fluoro-3-methylphenyl)amino]pyridin-3-yl}carbonyl)amino]phenyl}propanoate] |  | ≤ 1 µg/mL |  |
| CCNC(=O)Nc1cc(Nc2cccc(C)c2)c(C(=O)Nc2cccc(C)c2)cn1 [Compound 1, 6-(3-ethylureido)-N-m-tolyl-4-(m-tolylamino)nicotinamide] | 2 µg/mL (≈ 4.96 µM) | ≤ 1 µg/mL | MIC (S. pyogenes (ATCC 51339)): 16 µg/mL (≈ 39.7 µM) |
| CCNC(=O)Nc1cc(Nc2cccc(F)c2)c(C(=O)Nc2ccc(CCC(=O)OCC)cc2)cn1 [Compound 216, ethyl 3-{4-[({6-[(ethylcarbamoyl)amino]-4-[(3-fluorophenyl)amino]pyridin-3-yl}carbonyl)amino]phenyl}propanoate] |  | ≤ 1 µg/mL |  |
| CCNC(=O)Nc1cc(Nc2cc(F)cc(F)c2)c(C(=O)Nc2ccc(CCC(=O)OCC)cc2)cn1 [Compound 234, ethyl 3-{4-[({4-[(3,5-difluorophenyl)amino]-6-[(ethylcarbamoyl)amino]pyridin-3-yl}carbonyl)amino]phenyl}propanoate] |  | ≤ 1 µg/mL |  |
| CCNC(=O)Nc1cc(Nc2ccccc2)c(C(=O)Nc2ccc(CP(=O)(OCC)OCC)cc2)cn1 [Compound 206] |  |  | MIC (S. aureus (ATCC 29213); Staphylococcus aureus, ATCC29213, read-out: S. aureus (ATCC 29213) minimal inhibitory concentration (MIC)): ≤ 1 µg/mL; MIC (E. faecalis (ATCC 29212); Enterococcus faecalis, ATCC29212, read-out: E. faecalis (ATCC 29212) minimal inhibitory concentration (MIC)): ≤ 1 µg/mL |
| CCNC(=O)Nc1cc(Nc2ccccc2)c(C(=O)Nc2ccnc(C(=O)OC)c2)cn1 [Compound 21, methyl 4-(6-(3-ethylureido)-4-(phenylamino)nicotinamido)picolinate] |  | ≤ 1 µg/mL |  |
| CCNC(=O)Nc1cc(Nc2ccc(Cl)cc2)c(C(=O)Nc2ccc(-n3cccc3C(=O)OC)cc2)cn1 [Compound 197, methyl 1-{4-[({4-[(4-chlorophenyl)amino]-6-[(ethylcarbamoyl)amino]pyridin-3-yl}carbonyl)amino]phenyl}-1H-pyrrole-2-carboxylate] |  | 4 µg/mL (≈ 7.5 µM) |  |
| CCNC(=O)Nc1cc(Nc2ccccc2)c(C(=O)Nc2cccnc2)cn1 [Compound 20, 6-(3-ethylureido)-4-(phenylamino)-N-(pyridin-3-yl)nicotinamide] | ≤ 1 µg/mL | ≤ 1 µg/mL | MIC (S. pyogenes (ATCC 51339)): ≤ 1 µg/mL |
| CCNC(=O)Nc1cc(Nc2ccccc2)c(C(=O)Nc2ccc(C(=O)NC)cc2)cn1 [Compound 213, 6-[(ethylcarbamoyl)amino]-N-[4-(methylcarbamoyl)phenyl]-4-(phenylamino)pyridine-3-carboxamide] | 4 µg/mL (≈ 9.25 µM) | ≤ 1 µg/mL |  |
| CCNC(=O)Nc1cc(Nc2ccc(F)cc2)c(C(=O)Nc2ccc(CN3CCN(C)CC3)cc2)cn1 [Compound 202, 6-[(ethylcarbamoyl)amino]-4-[(4-fluorophenyl)amino]-N-{4-[(4-methylpiperazin-1-yl)methyl]phenyl}pyridine-3-carboxamide] | 8 µg/mL (≈ 15.8 µM) | 2 µg/mL (≈ 3.96 µM) |  |
| CCNC(=O)Nc1cc(Nc2ccccc2)c(C(=O)Nc2cncc(OC)c2)cn1 [Compound 79, 6-(3-ethylureido)-N-(5-methoxypyridin-3-yl)-4-(phenylamino)nicotinamide] | ≤ 1 µg/mL |  | MIC (S. pyogenes (ATCC 51339)): ≤ 1 µg/mL |
| CCNC(=O)Nc1cc(Nc2ccccc2)c(C(=O)Nc2ccc(OC)nc2)cn1 [Compound 63, 6-(3-ethylureido)-N-(6-methoxypyridin-3-yl)-4-(phenylamino)nicotinamide] | ≤ 1 µg/mL |  | MIC (S. pyogenes (ATCC 51339)): ≤ 1 µg/mL |
| CCNC(=O)Nc1cc(NCc2cccnc2)c(C(=O)Nc2cccnc2)cn1 [Compound 26, 6-(3-ethylureido)-N-(pyridin-3-yl)-4-(pyridin-3-ylmethylamino)nicotinamide] |  | 8 µg/mL (≈ 20.4 µM) | MIC (S. pyogenes (ATCC 51339)): 8 µg/mL (≈ 20.4 µM) |
| CCNC(=O)Nc1cc(Nc2ccc(F)c(Cl)c2)c(C(=O)Nc2ccc(CCC(=O)OCC)cc2)cn1 [Compound 226, ethyl 3-{4-[({4-[(3-chloro-4-fluorophenyl)amino]-6-[(ethylcarbamoyl)amino]pyridin-3-yl}carbonyl)amino]phenyl}propanoate] | 2 µg/mL (≈ 3.79 µM) | ≤ 1 µg/mL |  |

The next lines start with results.

| MIC (S. aureus (ATCC 29213); [1]) | MIC (E. faecalis (ATCC 29212); [2]) | Compound | further results |
| --- | --- | --- | --- |
| 8 µg/mL (≈ 16.8 µM) | 2 µg/mL (≈ 4.2 µM) | CCNC(=O)Nc1cc(Nc2ccc(F)cc2)c(C(=O)Nc2ccc(CN3CCCC3)cc2)cn1 [Compound 200, 6-[(ethylcarbamoyl)amino]-4-[(4-fluorophenyl)amino]-N-[4-(pyrrolidin-1-ylmethyl)phenyl]pyridine-3-carboxamide] |  |
|  | ≤ 1 µg/mL | CCNC(=O)Nc1cc(Nc2ccc(F)cc2F)c(C(=O)Nc2ccc(CCC(=O)OCC)cc2)cn1 [Compound 227] |  |
| 2 µg/mL (≈ 4.14 µM) | ≤ 1 µg/mL | CCNC(=O)Nc1cc(Nc2ccc(C#N)cc2)c(C(=O)Nc2ccc(CN3CCCC3)cc2)cn1 [Compound 203, 4-[(4-cyanophenyl)amino]-6-[(ethylcarbamoyl)amino]-N-[4-(pyrrolidin-1-ylmethyl)phenyl]pyridine-3-carboxamide] |  |
| 4 µg/mL (≈ 7.35 µM) | ≤ 1 µg/mL | CCNC(=O)Nc1cc(Nc2cc(Cl)cc(Cl)c2)c(C(=O)Nc2ccc(CCC(=O)OCC)cc2)cn1 [Compound 225, ethyl 3-{4-[({4-[(3,5-dichlorophenyl)amino]-6-[(ethylcarbamoyl)amino]pyridin-3-yl}carbonyl)amino]phenyl}propanoate] |  |
| ≤ 1 µg/mL | ≤ 1 µg/mL | CCNC(=O)Nc1cc(Nc2ccc(F)c(F)c2)c(C(=O)Nc2ccc(CCC(=O)OCC)cc2)cn1 [Compound 215, ethyl 3-{4-[({4-[(3,4-difluorophenyl)amino]-6-[(ethylcarbamoyl)amino]pyridin-3-yl}carbonyl)amino]phenyl}propanoate] |  |
|  | ≤ 1 µg/mL | CCNC(=O)Nc1cc(Nc2ccc(Cl)cc2F)c(C(=O)Nc2ccc(CCC(=O)OCC)cc2)cn1 [Compound 219, ethyl 3-{4-[({4-[(4-chloro-2-fluorophenyl)amino]-6-[(ethylcarbamoyl)amino]pyridin-3-yl}carbonyl)amino]phenyl}propanoate] |  |
|  | ≤ 1 µg/mL | CCNC(=O)Nc1cc(Nc2ccc(C)c(F)c2)c(C(=O)Nc2ccc(CCC(=O)OCC)cc2)cn1 [Compound 217, ethyl 3-{4-[({6-[(ethylcarbamoyl)amino]-4-[(3-fluoro-4-methylphenyl)amino]pyridin-3-yl}carbonyl)amino]phenyl}propanoate] |  |
|  | 8 µg/mL (≈ 17 µM) | CCNC(=O)Nc1cc(Nc2ccccc2)c(C(=O)Nc2ccc(CP(=O)(O)O)cc2)cn1 [Compound 207, {4-[({6-[(ethylcarbamoyl)amino]-4-(phenylamino)pyridin-3-yl}carbonyl)amino]benzyl}phosphonic acid] |  |
| 2 µg/mL (≈ 3.9 µM) | ≤ 1 µg/mL | CCNC(=O)Nc1cc(Nc2ccc(C#N)cc2)c(C(=O)Nc2ccc(CN3CCN(C)CC3)cc2)cn1 [Compound 205, 4-[(4-cyanophenyl)amino]-6-[(ethylcarbamoyl)amino]-N-{4-[(4-methylpiperazin-1-yl)methyl]phenyl}pyridine-3-carboxamide] |  |
|  | 2 µg/mL (≈ 5.12 µM) | CCNC(=O)Nc1cc(NCc2cccnc2)c(C(=O)Nc2ccccc2)cn1 [Compound 25, 6-(3-ethylureido)-N-phenyl-4-(pyridin-3-ylmethylamino)nicotinamide] | MIC (S. pyogenes (ATCC 51339)): 8 µg/mL (≈ 20.5 µM) |
|  | ≤ 1 µg/mL | CCNC(=O)Nc1cc(Nc2ccccc2)c(C(=O)Nc2ccc(-n3cncn3)nc2)cn1 [Compound 27, N-(6-(1H-1,2,4-triazol-1-yl)pyridin-3-yl)-6-(3-ethylureido)-4-(phenylamino)nicotinamide] |  |
| 2 µg/mL (≈ 4.06 µM) | ≤ 1 µg/mL | CCNC(=O)Nc1cc(Nc2ccc(F)cc2)c(C(=O)Nc2ccc(CN3CCOCC3)cc2)cn1 [Compound 201, 6-[(ethylcarbamoyl)amino]-4-[(4-fluorophenyl)amino]-N-[4-(morpholin-4-ylmethyl)phenyl]pyridine-3-carboxamide] |  |
| ≤ 1 µg/mL |  | CCNC(=O)Nc1cc(Nc2ccccc2Cl)c(C(=O)Nc2cccnc2)cn1 [Compound 105, 4-(2-chlorophenylamino)-6-(3-ethylureido)-N-(pyridin-3-yl)nicotinamide] | MIC (S. pyogenes (ATCC 51339)): ≤ 1 µg/mL |
| 8 µg/mL (≈ 21.1 µM) |  | CCNC(=O)Nc1cc(Nc2ccccc2)c(C(=O)Nc2ccn(C)n2)cn1 [Compound 59, 6-(3-ethylureido)-N-(1-methyl-1H-pyrazol-3-yl)-4-(phenylamino)nicotinamide] | MIC (S. pyogenes (ATCC 51339)): 2 µg/mL (≈ 5.27 µM) |
|  | ≤ 1 µg/mL | CCNC(=O)Nc1cc(Nc2ccccc2)c(C(=O)NCc2cccnc2)cn1 [Compound 28, 6-(3-ethylureido)-4-(phenylamino)-N-(pyridin-3-ylmethyl)nicotinamide] | MIC (S. pyogenes (ATCC 51339)): ≤ 1 µg/mL |
